Assay results: patent publication US8658662B2, “Crystalline CDC7 inhibitor salts” (Nerviano Medical Sciences S.r.l., priority 2009, dated 2014)
≈ marks a conversion by molar mass, not a printed value. Counter-ions that a name gives are not always drawn. Like-named read-outs stand apart in the source and are kept apart here.

How the values were obtained:
Type in all cases: physicochemical
[1] = Solubility of crystalline NMS-E354 salts and free base in 0.9% NaCl solution; details: for Aqueous solubility value: stirred 4 hours at RT, excess solid (target 10 mg/ml), filtered, HPLC
Experimental: The determination of solubility of NMS-E354 salts has been performed by means of the following procedure: known amounts of crystalline NMS-E354 salts or free base stirred for 4 hours at RT in 0.9% NaCl solution, in condition of excess solid considering a target concentration of 10 mg/ml. The obtained preparations were filtered and analysed by means of HPLC.

[2] = Hygroscopicity test by Dynamic Vapour Sorption (DVS); details: RH modifications up to 90% at 25° C.
From the text: The water uptake of crystalline NMS-E354 salts and free base was investigated by submitting a sample of such substances to a hygroscopicity test by means of a DVS 1000 (SMS). The apparatus is a “controlled atmosphere microbalance” where the weighed sample is exposed to programmed variations of the relative humidity (RH) at a constant and controlled temperature. The measured parameters (weight, time and RH), reported in Excel worksheets, allow obtaining hygroscopicity curves over the tested RH range. Sorption/desorption cycles between 0% and 90% RH can be performed at controlled temperature of 25° C. Progressive variations of RH can be of 10% and 3%; they are operated by the software at the equilibration of the sample weight. This condition can be defined at a constant rate of percent weight variation e.g. 0.005%/min.

[3] = Solubility of NMS-E354 free base in water and early formulation vehicles
Experimental: The solubility of the NMS-E354 free base is about 4 mg/ml in 10% Polysorbate 80 in 5% dextrose solution, about 7 mg/ml in aqueous 50% Polyethylene Glycol 400 in 5% dextrose solution and about 1÷2 mg/ml when formulated as hydrochloride or phosphate in situ salt. NMS-E354 free base was also suitable for aqueous hypromellose suspensions at about 10 mg/ml. Therefore, the obtained free base was initially formulated as cosolvent based aqueous solution, in situ salt or hypromellose suspension in order to allow administration during early pharmacological and toxicological evaluation for early pharmacological studies.

| SMILES | Aqueous solubility value [1] [µg/mL] | hygroscopicity [2] | Aqueous solubility value ([1]; listed as Free base) [µg/mL] | solubility ([3]; 10% Polysorbate 80 in 5% dextrose solution, aqueous with cosolvent or surfactant or cyclodextrin, read-out: solubility) [µg/mL] | solubility ([3]; aqueous 50% Polyethylene Glycol 400 in 5% dextrose solution, aqueous with cosolvent or surfactant or cyclodextrin, read-out: solubility) [µg/mL] | solubility ([3]; hydrochloride or phosphate in situ salt formulation, formulated as hydrochloride or phosphate in situ salt, read-out: solubility) [µg/mL] | solubility ([3]; water, read-out: aqueous solubility) [µg/mL] | solubility in 0.9% NaCl solution [1] [µg/mL] |
| --- | --- | --- | --- | --- | --- | --- | --- | --- |
| NC(=O)c1cc(-c2ccnc(N)n2)[nH]c1-c1ccc(Cl)cc1Cl [Mesylate salt, 5-(2-amino-pyrimidin-4-yl)-2-(2,4-dichloro-phenyl)-1H-pyrrole-3-carboxylic acid amide] | 120 | low hygroscopicity |  |  |  |  |  |  |
| NC(=O)c1cc(-c2ccnc(N)n2)[nH]c1-c1ccc(Cl)cc1Cl [Hemifumarate salt, 5-(2-amino-pyrimidin-4-yl)-2-(2,4-dichloro-phenyl)-1H-pyrrole-3-carboxylic acid amide] | 20 | low hygroscopicity |  |  |  |  |  |  |
| NC(=O)c1cc(-c2ccnc(N)n2)[nH]c1-c1ccc(Cl)cc1Cl [NMS-E354, 5-(2-amino-pyrimidin-4-yl)-2-(2,4-dichloro-phenyl)-1H-pyrrole-3-carboxylic acid amide] |  | low hygroscopicity | <10 | ~4000 (≈ 11.5 mM) | ~7000 (≈ 20.1 mM) | 1000 to 2000 | < 10 |  |

Now from value to molecule:

| Aqueous solubility value [1] [µg/mL] | hygroscopicity [2] | Aqueous solubility value ([1]; listed as Free base) [µg/mL] | solubility ([3]; 10% Polysorbate 80 in 5% dextrose solution, aqueous with cosolvent or surfactant or cyclodextrin, read-out: solubility) [µg/mL] | solubility ([3]; aqueous 50% Polyethylene Glycol 400 in 5% dextrose solution, aqueous with cosolvent or surfactant or cyclodextrin, read-out: solubility) [µg/mL] | solubility ([3]; hydrochloride or phosphate in situ salt formulation, formulated as hydrochloride or phosphate in situ salt, read-out: solubility) [µg/mL] | solubility ([3]; water, read-out: aqueous solubility) [µg/mL] | solubility in 0.9% NaCl solution [1] [µg/mL] | SMILES |
| --- | --- | --- | --- | --- | --- | --- | --- | --- |
| 70 | low hygroscopicity |  |  |  |  |  | 70 | NC(=O)c1cc(-c2ccnc(N)n2)[nH]c1-c1ccc(Cl)cc1Cl [Maleate salt, 5-(2-amino-pyrimidin-4-yl)-2-(2,4-dichloro-phenyl)-1H-pyrrole-3-carboxylic acid amide] |
| 150 | low hygroscopicity |  |  |  |  |  | 150 | NC(=O)c1cc(-c2ccnc(N)n2)[nH]c1-c1ccc(Cl)cc1Cl [Sulfate salt, 5-(2-amino-pyrimidin-4-yl)-2-(2,4-dichloro-phenyl)-1H-pyrrole-3-carboxylic acid amide] |
